Experimental data taken from patent US20250376466A1, “ESTER COMPOUNDS AND USE THEREOF” (NANJING REJU THERAPEUTICS, CO., LTD., priority 2022, published 2025).

Assays:
[1] = system: Alzheimer's disease; test: APP×PS1 transgenic mouse model of Alzheimer's disease; format: in vivo; conditions: intraperitoneal injection, twice a week, 11 consecutive weeks; cerebral cortex; FIG. 8
Procedure: In this example, the efficacy of the compounds of the present disclosure was tested on Alzheimer's disease in an animal model of Alzheimer's disease. Briefly, a transgenic mouse model of APP×PS1 (purchased from Cyagen Biosciences) was selected and the compound of the present disclosure was administered by intraperitoneal injection for 11 consecutive weeks, twice a week. Alterations in amyloid in the cerebral cortex of the mice were observed.

[2] = system: idiopathic pulmonary fibrosis; test: Bleomycin idiopathic pulmonary fibrosis animal model; format: in vivo, SD rats; conditions: intraperitoneal (IP) 5 mg/kg, 3 consecutive weeks from day 7; Day 28; FIG. 6
Procedure: In this example, the efficacy of the compounds of the present disclosure was tested on idiopathic pulmonary fibrosis in an idiopathic pulmonary fibrosis animal model. Briefly, anesthetized 6-week-old SD rats were fixed on a foam board with medical tape. Firstly, the skin on the surface of the trachea was cut with surgical scissors to fully expose the trachea, and a 100-microlitre micro-syringe containing a certain volume of bleomycin (BLM 5 mg/kg) solution drawn based on the body weight of the rat was inserted into the trachea through the oral cavity to administer by slow bolus injection. After administration of the BLM solution, the foam plate was immediately rotated and shaken to distribute the BLM solution as evenly as possible in the lung tissue. Then the skin on the surface of the trachea was sutured with surgical sutures and about 0.5 to 1.0 mL of penicillin solution was dripped onto the epidermis to prevent infection of the surgical wound. After the 7th day of modelling, the compound solution of the present disclosure was administered via intraperitoneal (IP) injection (5 mg/kg) according to the weight of the rat for 3 consecutive weeks. Rats were euthanized by carbon dioxide at Day 28, the lung tissues were removed, the left alveolar lavage fluid was collected for white blood cell (WBC) counting, the right lung tissue portion was used for hydroxyproline (HYP) assay, and the remaining lung tissues were stained for pathology by H&E staining and Masson staining.

[3] = system: hypertrophic scars; test: Rabbit ear hypertrophic scar model; format: in vivo, New Zealand white rabbits; conditions: 150 μM, 100 μL injected into lesion once a week, 4 injections, from postoperative Day 14; FIG. 12
Procedure: In this example, the efficacy of the compounds of the present disclosure was tested on hypertrophic scars in a rabbit ear hypertrophic scar animal model. Briefly, 10 New Zealand white rabbits, male, 3 months old, were used. The New Zealand rabbits were anaesthetized with sodium pentobarbital and six circular full-thickness wounds with a diameter of 10 mm were made on the ventral surface of each ear by removing the epidermis, dermis and perichondrium to expose the cartilage. The rabbits were randomly divided into control and RZ001 experimental groups. On postoperative Day 14, after complete re-epithelialization of the wound surface, the compound (150 μM, 100 μL, dissolved in DMSO solution) or negative control DMSO 100 μL was injected into the center of each lesion from the wound edge once a week for a total of 4 injections. Improvement of scar formation by the compound was assessed by SEI (Scar Excess Index).

[4] = system: oxygen-induced retinopathy (OIR); test: Mouse model of oxygen-induced retinopathy (OIR); format: in vivo; conditions: intravitreal (IVT), 1 μl of 200 μM at P12, retinas at P17, IB4 staining; FIG. 3
Procedure: The efficacy of the prodrugs RZ001-RZ006 as well as RZ201 were investigated in a mouse model of oxygen-induced retinopathy (OIR) which to some extent indicates an in vivo model of retinopathy of prematurity (ROP), diabetic retinopathy, and wet age-related macular degeneration. From postnatal Day 7 (P7) to Day 12 (P12), C57Bl/6 mouse pups and their CD1 foster mothers were exposed to hyperoxia (75% O2). At P12, the animals were injected intravitreally with 1 μl of the test composition formulated in 1% DMSO, 10% Tween 80, and 20% PEG-400 (200 μM the compound) and returned to room air until Day 17 (P17). On P17, the eyeballs were enucleated and the retinas were dissected for vascular staining. To determine the area of avascularity or angiogenesis, the retinas were flattened and stained with isolectin B4 (IB4).

[5] = system: normal A549 cells, IMR90 cells, RPE cells, mouse chondrocytes, mouse skin fibroblasts; test: Cell viability of normal cells (CellTiter-Glo); format: cell-based, human; conditions: 1 μM, 72 hours, FIGS. 2A to 2E
Procedure: (§1) In this example, human non-small cell lung cancer cell line (A549 cells), human embryonic lung fibroblast cell line (IMR90 cells), human retinal pigment epithelial cells (RPE cells), mouse chondrocytes, and mouse skin fibroblasts were selected. The cells above were induced to obtain senescent cells by etoposide (10 μM). The effect of the target compounds RZ001-RZ006 and RZ201 on the viability of normal and senescent cells above was detected, thereby evaluating the specific killing effect of the prodrugs RZ001-RZ006 and RZ201 on senescent cells above.
(§2) Briefly, senescent and normal cells above were selected and plated separately (96-well plates). After adding the compounds RZ001-RZ006 and RZ201 (concentration: 1 μM) for 72 hours, CellTiter-Glo® Luminescent Cell Viability Assay Kit (Promega) was used to detect cell viability, and the results were shown in FIGS. 2A to 2E.

[6] = system: senescent A549 cells, IMR90 cells, RPE cells, mouse chondrocytes, mouse skin fibroblasts; test: Cell viability of senescent cells (CellTiter-Glo); format: cell-based, human; conditions: 1 μM, 72 hours; etoposide (10 μM)-induced senescent cells; FIGS. 2A to 2E
Procedure: as §1, §2

Cc1c(-c2ccc(N3CCc4cccc(C(=O)Nc5nc6ccccc6s5)c4C3)nc2C(=O)OCOC(=O)C(C)C)cnn1CC12CC3CC(CC(C3)C1)C2 [RZ001]
Aβ42 pathogenic protein indicators [1]: statistically significant improvements | HYP (hydroxyproline, lung tissue) [2]: statistically significant improvements | WBC (white blood cell count, alveolar lavage fluid) [2]: statistically significant improvements | pathology scores (H&E and Masson staining, lung) [2]: statistically significant improvements | scar excess index (SEI) [3]: statistically significant improvement

Cc1oc(=O)oc1COC(=O)c1nc(N2CCc3cccc(C(=O)Nc4nc5ccccc5s4)c3C2)ccc1-c1cnn(CC23CC4CC(CC(C4)C2)C3)c1C [RZ201]
angiogenesis [4]: statistically significant improvements | avascular zone [4]: statistically significant improvements | Aβ42 pathogenic protein indicators [1]: statistically significant improvements | cytotoxicity against normal cells (cell viability) [5]: without significant killing effects on normal cells | HYP (hydroxyproline, lung tissue) [2]: statistically significant improvements | WBC (white blood cell count, alveolar lavage fluid) [2]: statistically significant improvements | pathology scores (H&E and Masson staining, lung) [2]: statistically significant improvements | cytotoxicity against senescent cells (cell viability) [6]: cytotoxicity primarily against senescent cells
